# From patent publication EP0979818A1, “BENZOIC ACID COMPOUNDS AND MEDICINAL USE THEREOF” (YOSHITOMI PHARMACEUTICAL INDUSTRIES, LTD., priority 1997, dated 1998)
# Read-outs that look alike come from different tables or passages of the source.
# Experiments:
# [1] = target: isolated guinea pig ascending colon (Cavia porcellus, UniProt O70528); assay: contraction of the isolated guinea pig ascending colon; format: cell-based
# Protocol: Male Hartley guinea pig was killed by a blow, ascending colon was taken from it and longitudinal muscle was separated. About 3 cm longitudinal muscle segment was suspended in 10 ml of a Tyrode solution with the load of 1 g. Tyrode solution contained methysergide (1 µM) and granisetron (1 µM) to inhibit responses mediated by 5-HT1, 5-HT2 and 5-HT3 receptors. Tyrode solution was maintained at 37°C and ventilated with a mixed gas of O2 (95%) and CO2 (5%). The contraction was isotonically measured via isotonic transducer. After an equilibrium period of about 30 minutes, the contraction by methacholine (30 µM) was measured two times at 15 minute intervals. Twenty minutes later, Y-36912 was added into the bath and the contraction was measured in the presence of a solvent or 1-methyl-1H-indole-3-carboxylic acid · 1-(2-methylsulfonylaminoethyl)-pyperidin-4-ylmethyl ester (hereinafter to be referred to as GR113808, 10nM), which is 5-HT4 receptor antagonist. The time of pretreatment with the solvent or GR113808 was 10 minutes. To avoid tachyphylaxis, the contraction induced by one concentration per preparation was measured. The contraction in the presence of a solvent or GR113803 was measured using a preparation from the same animal. The contraction effect of Y-36912 was measured as a percentage of responses to the second contraction by methacholine. […]
# [2] = measurement of absorption by small intestine in rat; format: in vivo; conditions: small intestine loop, 5 mg/kg, male SD rats, intestinal loop, 5 mg/10 ml in 5% glucose, 10 ml/kg, read-out: absorption (absorption ratio by small intestine loop)
# Protocol: Male SD rats (3 per group) fasted overnight were subjected to laparotomy under ether anesthesia, and the upper part of small intestine was ligated to form a loop (15-20 cm in length). The drug was dissolved in 5% glucose to the drug concentration of 5 mg/10 ml, and 10 ml/kg thereof was injected into the loop. At 2 hours from the drug injection, the loop was removed, washed with 100 ml of 0.1 N hydrochloric acid-methanol (3:7), and the drug concentration was determined by high performance liquid chromatography. The absorption ratio was calculated according to the following formula. The absorption of Y-36912 was 60.5±13.7 % (Injected amount of drug (mg) - drug concentration in loop (mg/ml) x 100 (ml))/(Injected amount of drug (mg))x 100(%) [formula]
# 5-HT3 receptor = target: T1, 5-HT3 receptor (Rattus norvegicus, UniProt P35563); assay: 5-HT3 receptor binding test; conditions: rat cerebral cortex crude synapse membrane, [3H]granisetron 1.0 nM, 25°C; value marked * is IC50, not Ki; read-out: Affinity for receptor 5-HT3 (* shows IC50)
# T1 construct: Crude synapse membrane sample was prepared from rat cerebral cortex; from tissue; host or cells: rat cerebral cortex, crude synaptic membranes
# T1 sequence (P35563 24-483): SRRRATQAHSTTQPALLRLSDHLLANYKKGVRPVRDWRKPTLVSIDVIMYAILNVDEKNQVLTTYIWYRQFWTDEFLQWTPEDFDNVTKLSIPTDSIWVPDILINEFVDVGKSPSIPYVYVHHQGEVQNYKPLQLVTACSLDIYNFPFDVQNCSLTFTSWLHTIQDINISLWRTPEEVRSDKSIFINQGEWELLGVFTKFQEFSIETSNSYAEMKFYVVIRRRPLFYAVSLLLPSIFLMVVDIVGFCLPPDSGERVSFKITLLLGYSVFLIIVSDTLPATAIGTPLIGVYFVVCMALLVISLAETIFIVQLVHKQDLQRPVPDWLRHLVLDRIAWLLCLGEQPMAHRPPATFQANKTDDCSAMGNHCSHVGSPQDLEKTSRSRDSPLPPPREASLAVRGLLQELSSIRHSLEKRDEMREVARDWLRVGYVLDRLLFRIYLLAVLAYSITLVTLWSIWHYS
# Protocol: According to the method of Nelson and Thomas [Biochemical Pharmacology, vol. 38, pp. 1693-1695 (1989)], a 5-HT3 receptor binding test was run using, as a tracer ligand, endo-1-methyl-N-(9-methyl-9-azabicyclo[3.3.1]non-3-yl)-1H-indazole-3-carboxamide substituted by tritium (hereinafter to be referred to as [^3H]granisetron). Crude synapse membrane sample was prepared from rat cerebral cortex, suspended in 50 mM HEPES buffer (pH 7.4) and used for testing. Y-36912 having several different concentrations and [^3H]granisetron (final concentration 1.0 nM) were added to this suspension and allowed to react at 25°C. Thirty minutes later, the reaction mixture was filtered by suction with cell harvester. The filter was washed with 50 mM Tris buffer (pH 7.4), and the radioactivity on the filter was counted using liquid scintillation counter or β-plate. The non-specific binding was determined in the presence of 1 µM tropisetron. The concentration of Y-36912 necessary for 50% inhibition (IC50) was determined from graph and converted to binding inhibition constant (Ki value).
# SD rats [3] = assay: toxicity testing, repeated administration for 10 days in rats; format: in vivo; conditions: female and male SD rats, repeated 30 mg/kg for 10 days
# rats = assay: promotion of gastric emptying in rats; format: in vivo; conditions: for Number of pellets (remaining in stomach): female Wistar rats, 1 hour after pellets, Mean ± S.E.; for Promotion (%) of gastric emptying: versus vehicle
# Description: Barium pellets (ca. 1 mm diameter) coated with polystyrene was intragastrically administered to female Wistar rats. One hour later, stomach was removed, and the remaining pellets were counted. Y-36912 was orally administered one hour before administration of the pellets.
# SD rats [4] = assay: toxicity testing, single oral dose in rats; format: in vivo; conditions: four female SD rats, 750 mg/kg
# Protocol: There was no death when four female SD rats were administered orally with Y-36912 at a dose of 750 mg/kg.
# [5] = evaluation of bioavailability in rats; format: in vivo; conditions: rat, po; female SD rats, 3 mg/kg i.v. and 30 mg/kg p.o., from plasma AUC
# Protocol: Female SD rats (4 per group) were administered with 3 mg/kg (i.v.) and 30 mg/kg (p.o.) of Y-36912. The blood was taken with the passage of time, and the concentration of the drug in plasma was measured with high performance liquid chromatography. […] In the formula, AUC means area under the plasma concentration-time curve. (AUC by oral administration)/(AUC by intravenous administration)X(Dose of intravenous administration)/(Dose of oral administration)X 100(%) [formula]
# guinea pig = assay: promotion of transit in large intestine in guinea pig; format: in vivo; conditions: guinea pigs; for Ratio of transit in large intestine (%): Evans blue, 1 hour, Mean ± S.E.; for Promotion (%) of transit in large intestine: versus vehicle
# Protocol: Male Hartley guinea pigs were subjected to laparotomy under ether anesthesia, and a silicone tube was inserted into the beginning of ascending colon and fixed there. The other end was passed under the skin to be exposed from the back and sutured. At day 5 postoperation, Y-36912 was administered orally and Evans blue solution was injected into the colon through the silicon tube. One hour later, the large intestine was removed, and the entire length of the large intestine and the length of the transit of the Evans blue solution were measured. Evans blue transit ratio relative to the entire length of the large intestine (100 %) was calculated.
# mice = assay: stimulation of defecation in mice; format: in vivo; conditions: for Number (of feces) / Wet weight (of feces): 2 hours, Mean ± S.E.; for Promotion(%) of number of feces / Promotion(%) of wet weight of feces: versus vehicle
# Protocol: Male ICR mice were subcutaneously administered with Y-36912 after adaptation to experimental surroundings for thirty minutes. The number and wet weight of feces excreted in 2 hours from immediately after administration were measured.
# 5-HT4 receptor = target: T2, 5-HT4 receptor (Cavia porcellus, UniProt O70528); assay: 5-HT4 receptor binding test; conditions: guinea pig striatum crude synapse membrane, [3H]GR113808 0.1 nM, 37°C; read-out: Affinity for receptor (Ki value, nM) 5-HT4
# T2 construct: Crude synapse membrane sample was prepared from guinea pig striatum; from tissue; host or cells: guinea pig striatum, crude synaptic membranes
# Protocol: According to the method of C.J. Grossman et al. [British Journal of Pharmacology, vol. 109, pp. 618-624 (1993)1, a 5-HT4 receptor binding test was run using, as a tracer ligand, 1-methyl-1H-indole-3-carboxylic acid · 1-(2-methylsulfonylaminoethyl)-piperidin-4-ylmethyl ester substituted by tritium (hereinafter to be referred to as [^3H]GR113808). Crude synapse membrane sample was prepared from guinea pig striatum, suspended in 50 mM HEPES buffer (pH 7.4) and used for testing. Y-36912 having several different concentrations and [^3H]GR113808 (final concentration 0.1 nM) were added to this suspension and allowed to react at 37°C. Thirty minutes later, the reaction mixture was filtered by suction with cell harvester. The filter was washed with 50 mM HEPES buffer, and the radioactivity on the filter was counted by liquid scintillation counter. The non-specific binding was determined in the presence of 1µM GR113808. The concentration of Y-36912 necessary for 50% inhibition (IC50) was determined from graph and convened to binding inhibition constant (Ki value).
# dogs = assay: promotion of postprandial gastrointestinal motility in dogs without anesthesia; format: in vivo; conditions: for Difference of motility index (g·min) Colon / Difference of motility index (g·min) Stomach: Mean ± S.E.; for minimal effective dose: Canis lupus familiaris, iv
# Protocol: According to the method of Ito et al. [Journal of Smooth Muscle Research, vol. 13, pp. 33-43 (1976)], male and female adult mongrel dogs were subjected to laparotomy under pentobarbital anesthesia, and force transducer was sutured to the serous membrane of various sites of gastrointestinal tract in the direction of circular muscle. After about two weeks' recovery period, postprandial gastrointestinal motility was measured in vigilance. The results are shown in Table 3 as the difference in motility index (g·min) between before and after administration of Y-36912. Y-36912 was administered intravenously.
# Chain of isolated guinea pig ascending colon (O70528 whole entry): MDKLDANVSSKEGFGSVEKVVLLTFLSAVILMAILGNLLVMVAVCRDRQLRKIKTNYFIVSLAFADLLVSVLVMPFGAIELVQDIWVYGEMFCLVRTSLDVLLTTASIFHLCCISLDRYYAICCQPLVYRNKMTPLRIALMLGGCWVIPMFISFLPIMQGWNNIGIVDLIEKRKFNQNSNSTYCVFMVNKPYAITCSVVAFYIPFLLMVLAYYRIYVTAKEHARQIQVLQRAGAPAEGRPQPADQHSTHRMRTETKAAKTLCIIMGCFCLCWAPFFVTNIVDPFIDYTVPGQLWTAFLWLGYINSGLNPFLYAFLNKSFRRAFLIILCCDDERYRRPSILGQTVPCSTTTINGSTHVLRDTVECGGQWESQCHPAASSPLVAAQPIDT
# T2 sequence (O70528 whole entry): as above
compound,measurement,setting,value
"Cn1cc(C(=O)OCC2CCN(CCNS(C)(=O)=O)CC2)c2ccccc21 [GR113808, 1-methyl-1H-indole-3-carboxylic acid · 1-(2-methylsulfonylaminoethyl)-pyperidin-4-ylmethyl ester, reference compound]","pKB, antagonism of GR113808 to contraction of Y-36912","[1]; GR113808 10 nM, 10 minutes pretreatment, agonist Y-36912",8.8
"COc1cc(N)c(Cl)cc1C(=O)NCC1CCN(CCCS(=O)(=O)Cc2ccccc2)CC1 [Y-36912, 4-amino-5-chloro-2-methoxy-N-((1-(3-benzylsulfonylpropyl)piperidin-4-yl)methyl)benzamide]",Fa at 2 h,[2],60.5 ± 13.7%
same,IC50,5-HT3 receptor,> 1000 nM
same,death,SD rats [3],no animal died
same,EC50,"[1]; longitudinal muscle, methysergide 1 µM and granisetron 1 µM present, relative to methacholine 30 µM contraction, read-out: Contraction effect on the isolated ascending colon (EC50 value)",10.8 nM
same,Number of pellets (remaining in stomach),rats; 0.1 mg/kg p.o.,21.1 ± 2.8
same,Promotion (%) of gastric emptying,"rats; 0.1 mg/kg p.o., rats",25%
same,Number of pellets (remaining in stomach),rats; 0.3 mg/kg p.o.,18.8 ± 3.0
same,Promotion (%) of gastric emptying,"rats; 0.3 mg/kg p.o., rats",33%
same,Number of pellets (remaining in stomach),rats; 1 mg/kg p.o.,19.5 ± 3.1
same,Promotion (%) of gastric emptying,"rats; 1 mg/kg p.o., rats",31%
same,Number of pellets (remaining in stomach),rats; 3 mg/kg p.o.,13.4 ± 1.8
same,Promotion (%) of gastric emptying,"rats; 3 mg/kg p.o., rats",52%
same,effect on gastric emptying,"rats; doses of 0.3 mg/kg and 3 mg/kg p.o., rats",significantly accelerated gastric emptying
same,death,SD rats [4],no death
same,bioavailability,[5],85.2%
same,Ratio of transit in large intestine (%),guinea pig; 0.1 mg/kg p.o.,57.0 ± 7.0%
same,Promotion (%) of transit in large intestine,guinea pig; 0.1 mg/kg p.o.,9%
same,Ratio of transit in large intestine (%),guinea pig; 0.3 mg/kg p.o.,70.9 ± 7.9%
same,Promotion (%) of transit in large intestine,guinea pig; 0.3 mg/kg p.o.,35%
same,Ratio of transit in large intestine (%),guinea pig; 1 mg/kg p.o.,77.2 ± 6.4 %
same,Promotion (%) of transit in large intestine,guinea pig; 1 mg/kg p.o.,47%
same,Ratio of transit in large intestine (%),guinea pig; 3 mg/kg p.o.,80.1 ± 5.8 %
same,Promotion (%) of transit in large intestine,guinea pig; 3 mg/kg p.o.,53%
same,minimal effective dose,"guinea pig; Cavia porcellus, po, 1 h, p.o., read-out: dose that significantly accelerated transit in large intestine",≥ 1 mg/kg
same,Number (of feces),mice; 0.03 mg/kg s.c,5.4 ± 0.7
same,Wet weight (of feces),mice; 0.03 mg/kg s.c,78.2 ± 8.6
same,Promotion(%) of number of feces,mice; 0.03 mg/kg s.c,59%
same,Promotion(%) of wet weight of feces,mice; 0.03 mg/kg s.c,38%
same,Number (of feces),mice; 0.1 mg/kg s.c,6.5 ± 0.8
same,Wet weight (of feces),mice; 0.1 mg/kg s.c,95.7 ± 10.6
same,Promotion(%) of number of feces,mice; 0.1 mg/kg s.c,91%
same,Promotion(%) of wet weight of feces,mice; 0.1 mg/kg s.c,69%
same,Number (of feces),mice; 0.3 mg/kg s.c,6.2 ± 0.8
same,Wet weight (of feces),mice; 0.3 mg/kg s.c,94.7 ± 10.3
same,Promotion(%) of number of feces,mice; 0.3 mg/kg s.c,82%
same,Promotion(%) of wet weight of feces,mice; 0.3 mg/kg s.c,68%
same,Number (of feces),mice; 1 mg/kg s.c,5.4 ± 0.5
same,Wet weight (of feces),mice; 1 mg/kg s.c,97.7 ± 12.5
same,Promotion(%) of number of feces,mice; 1 mg/kg s.c,59%
same,Promotion(%) of wet weight of feces,mice; 1 mg/kg s.c,73%
same,minimal effective dose,"mice; Mus musculus, sc, 2 h, s.c., read-out: dose showing significant promotion of defecation",≥ 0.1 mg/kg
same,Ki,5-HT4 receptor,1.5 nM
same,Difference of motility index (g·min) Colon,dogs; 0.01 mg/kg i.v.,27.1 ± 6.8 g·min
same,Difference of motility index (g·min) Stomach,dogs; 0.01 mg/kg i.v.,41.3 ± 35.4 g·min
same,Difference of motility index (g·min) Colon,dogs; 0.03 mg/kg i.v.,28.3 ± 8.5 g·min
same,Difference of motility index (g·min) Stomach,dogs; 0.03 mg/kg i.v.,65.1 ± 38.1 g·min
same,Difference of motility index (g·min) Colon,dogs; 0.1 mg/kg i.v.,58.2 ± 11.9 g·min
same,Difference of motility index (g·min) Stomach,dogs; 0.1 mg/kg i.v.,60.5 ± 18.1 g·min
same,minimal effective dose,dogs; read-out: dose that increased colonic (lower gastrointestinal) motility,0.1 mg/kg
same,minimal effective dose,dogs; read-out: dose that increased gastric (upper gastrointestinal) motility,≥ 0.03 mg/kg
